Source: patent US7897778B2, “Benzamide compounds” (AstraZeneca, priority 2004, dated 2011)

Columns and labels:
[1] = target: T1, recombinant human HDAC1 (Homo sapiens, UniProt Q13547); experiment: In vitro enzyme assay of recombinant HDAC1; type: biochemical; conditions: recombinant human HDAC1 produced in Hi5 insect cells; acetylated histone H4 peptide, Fluor de Lys; read-out: Test (a) IC50
T1 construct: FLAG (C); made in house; host or cells: Hi5 insect cells
Protocol: (a) In Vitro Enzyme Assay of recombinant HDAC1
HDAC inhibitors were screened against recombinant human HDAC1 produced in Hi5 insect cells. The enzyme was cloned with a FLAG tag at the C-terminal of the gene and affinity purified using Anti-FLAG M2 agarose from SIGMA (A2220).
The deacetylase assays were carried out in a 50 μl reaction. HDAC1 (75 ng of enzyme) diluted in 15 μl of reaction buffer (25 mM Tris HCl (pH 8), 137 mM NaCl, 2.7 mM KCl, 1 mM MgCl2) was mixed with either buffer alone (10 μl) or buffer containing compound (10 μl) for 30 minutes at ambient temperature. The 25 μM acetylated histone H4 peptide (KI 174 Biomol) diluted in 25 μl of buffer was then added to the reaction and incubated for one hour at ambient temperature. The reaction was stopped by addition of an equal volume (50 μl) Fluor de Lys developer (Biomol) containing Trichostatin A at 2 μM. The reaction was allowed to develop for 30 minutes at ambient temperature and then fluorescence measured at an excitation wavelength of 360 nm and an emission wavelength of 465 nm. The IC50 values for HDAC enzyme inhibitors were determined by performing dose response curves with individual compounds and determining the concentration of inhibitor producing fifty percent decrease in the maximal signal (diluent control).

[2] = test system: HCT116 cells; experiment: In vitro assay of inhibition of proliferation in whole cells (MTS); type: cell-based; conditions: Homo sapiens, HCT-116, 72 hours treatment, read-out: Test (b) IC50
Protocol: (b) In Vitro Assay of Inhibition of Proliferation in Whole Cells
Inhibition of proliferation in whole cells was assayed using the Promega cell titer 96 aqueous proliferation assay (Promega #G5421). The HCT116 cells were seeded in 96 well plates at 1×10^3 cells/well, and allowed to adhere overnight. They were treated with inhibitors for 72 hours. The 20 μl of the tetrazolium dye MTS was added to each well and the plates were reincubated for 3 hours. Absorbance was then measured on a 96 well plate reader at […]. The IC50 values for HDAC inhibitors were determined by performing dose response curves with individual compounds and determining the concentration of inhibitor producing fifty percent decrease in maximal signal (diluent control).

T1 sequence (Q13547 whole entry): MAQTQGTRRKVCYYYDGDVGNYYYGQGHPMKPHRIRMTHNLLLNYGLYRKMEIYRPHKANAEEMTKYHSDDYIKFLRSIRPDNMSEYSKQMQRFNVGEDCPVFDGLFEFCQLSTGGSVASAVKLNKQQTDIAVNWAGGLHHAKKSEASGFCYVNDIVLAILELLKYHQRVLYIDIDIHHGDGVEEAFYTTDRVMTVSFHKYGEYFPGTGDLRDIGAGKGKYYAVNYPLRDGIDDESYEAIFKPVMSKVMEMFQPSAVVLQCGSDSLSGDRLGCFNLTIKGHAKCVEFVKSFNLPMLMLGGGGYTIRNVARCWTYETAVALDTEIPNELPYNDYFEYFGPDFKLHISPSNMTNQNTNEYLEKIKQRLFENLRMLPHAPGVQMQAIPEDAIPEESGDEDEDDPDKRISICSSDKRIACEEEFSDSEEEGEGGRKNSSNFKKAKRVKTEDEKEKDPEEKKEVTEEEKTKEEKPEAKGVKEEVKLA

IC50 [1] | IC50 [2] | Compound
3 nM | 211 nM | N#Cc1cc(CN2CCC(c3ccccn3)C2)cnc1-c1ccc(C(=O)Nc2ccccc2N)cc1 (centres unmarked) [2 (10), N-(2-aminophenyl)-4-{3-cyano-5-[(3-pyridin-2-ylpyrrolidin-1-yl)methyl]pyridin-2-yl}benzamide]
6 nM | 218 nM | C[C@@H]1CC[C@@H](C)N1Cc1cnc(-c2ccc(C(=O)Nc3ccccc3N)cc2)c(C#N)c1 [2 (12), N-(2-aminophenyl)-4-(3-cyano-5-{[(2R,5R)-2,5-dimethylpyrrolidin-1-yl]methyl}pyridin-2-yl)benzamide]
12 nM | 287 nM | CC(C)N(C)Cc1cnc(-c2ccc(C(=O)Nc3ccccc3N)cc2)c(C#N)c1 [5 (15), N-(2-aminophenyl)-4-(3-cyano-5-{[isopropyl(methyl)amino]methyl}pyridin-2-yl)benzamide]
13 nM | 289 nM | N#Cc1cccnc1-c1ccc(C(=O)Nc2ccccc2N)cc1 [Example 1, N-(2-aminophenyl)-4-(3-cyanopyridin-2-yl)benzamide]
